Measurements published in ChEMBL document CHEMBL3991601, “The target landscape of clinical kinase drugs” (Science, 2017).
Where a name gives a salt, the structure may show the parent alone. Active and inactive are the calls of the source.

Legend:
[1] = target: T1, Serine/threonine-protein kinase Chk1 (Homo sapiens, UniProt O14757)
T1 sequence (O14757 whole entry): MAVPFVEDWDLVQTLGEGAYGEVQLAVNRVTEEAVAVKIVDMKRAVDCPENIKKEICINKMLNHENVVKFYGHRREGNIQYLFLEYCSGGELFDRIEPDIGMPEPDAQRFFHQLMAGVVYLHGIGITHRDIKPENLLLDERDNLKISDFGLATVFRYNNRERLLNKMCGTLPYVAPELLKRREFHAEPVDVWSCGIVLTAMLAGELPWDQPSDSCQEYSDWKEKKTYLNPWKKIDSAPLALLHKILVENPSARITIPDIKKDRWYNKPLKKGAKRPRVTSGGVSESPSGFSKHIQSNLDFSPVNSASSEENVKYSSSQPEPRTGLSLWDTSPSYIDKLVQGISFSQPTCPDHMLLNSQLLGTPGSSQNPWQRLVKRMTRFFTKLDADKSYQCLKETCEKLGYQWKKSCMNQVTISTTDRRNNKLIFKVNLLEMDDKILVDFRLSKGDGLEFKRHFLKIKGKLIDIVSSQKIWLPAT

[2] = target: Mitogen-activated protein kinase 1 (Homo sapiens, UniProt P28482)
Sequence of Mitogen-activated protein kinase 1 (P28482 whole entry): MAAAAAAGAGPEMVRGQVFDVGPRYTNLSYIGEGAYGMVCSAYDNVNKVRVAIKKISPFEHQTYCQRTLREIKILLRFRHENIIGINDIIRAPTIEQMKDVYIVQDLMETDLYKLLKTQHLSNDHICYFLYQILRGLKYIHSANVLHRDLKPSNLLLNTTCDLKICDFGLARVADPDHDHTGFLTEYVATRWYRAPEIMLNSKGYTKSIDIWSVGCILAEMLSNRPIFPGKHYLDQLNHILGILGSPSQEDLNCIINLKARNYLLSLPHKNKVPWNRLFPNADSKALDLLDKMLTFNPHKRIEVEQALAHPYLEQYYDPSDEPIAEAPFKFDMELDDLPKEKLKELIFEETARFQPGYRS

Ephrin type-A receptor 1 = target: T2, Ephrin type-A receptor 1 (Homo sapiens, UniProt P21709)
T2 sequence (P21709 whole entry): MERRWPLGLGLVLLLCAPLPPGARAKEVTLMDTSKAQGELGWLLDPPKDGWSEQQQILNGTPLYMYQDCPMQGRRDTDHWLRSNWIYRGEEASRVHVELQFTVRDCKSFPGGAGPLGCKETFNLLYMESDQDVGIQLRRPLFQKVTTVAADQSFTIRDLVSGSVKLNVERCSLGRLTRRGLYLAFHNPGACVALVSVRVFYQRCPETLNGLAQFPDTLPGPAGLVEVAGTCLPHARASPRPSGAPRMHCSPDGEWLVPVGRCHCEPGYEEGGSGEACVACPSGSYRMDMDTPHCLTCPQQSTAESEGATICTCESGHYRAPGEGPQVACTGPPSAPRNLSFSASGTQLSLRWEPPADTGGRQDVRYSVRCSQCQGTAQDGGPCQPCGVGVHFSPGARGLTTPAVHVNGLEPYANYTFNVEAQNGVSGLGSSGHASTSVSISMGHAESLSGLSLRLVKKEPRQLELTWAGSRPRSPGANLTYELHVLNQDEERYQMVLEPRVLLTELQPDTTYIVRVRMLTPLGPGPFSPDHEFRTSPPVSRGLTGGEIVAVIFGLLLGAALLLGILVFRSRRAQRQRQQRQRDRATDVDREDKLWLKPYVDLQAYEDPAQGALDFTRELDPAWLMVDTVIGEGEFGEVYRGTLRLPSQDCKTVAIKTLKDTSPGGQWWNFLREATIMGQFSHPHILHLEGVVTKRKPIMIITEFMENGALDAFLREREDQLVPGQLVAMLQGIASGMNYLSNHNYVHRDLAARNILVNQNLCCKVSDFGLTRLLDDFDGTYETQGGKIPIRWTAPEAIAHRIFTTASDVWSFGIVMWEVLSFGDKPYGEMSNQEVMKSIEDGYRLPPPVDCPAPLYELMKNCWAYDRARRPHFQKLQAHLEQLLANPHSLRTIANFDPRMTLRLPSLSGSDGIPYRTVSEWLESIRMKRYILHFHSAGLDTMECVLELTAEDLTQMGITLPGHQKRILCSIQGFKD

[3] = target: T3, Tyrosine--tRNA ligase, cytoplasmic (Homo sapiens, UniProt P54577)
T3 sequence (P54577 whole entry): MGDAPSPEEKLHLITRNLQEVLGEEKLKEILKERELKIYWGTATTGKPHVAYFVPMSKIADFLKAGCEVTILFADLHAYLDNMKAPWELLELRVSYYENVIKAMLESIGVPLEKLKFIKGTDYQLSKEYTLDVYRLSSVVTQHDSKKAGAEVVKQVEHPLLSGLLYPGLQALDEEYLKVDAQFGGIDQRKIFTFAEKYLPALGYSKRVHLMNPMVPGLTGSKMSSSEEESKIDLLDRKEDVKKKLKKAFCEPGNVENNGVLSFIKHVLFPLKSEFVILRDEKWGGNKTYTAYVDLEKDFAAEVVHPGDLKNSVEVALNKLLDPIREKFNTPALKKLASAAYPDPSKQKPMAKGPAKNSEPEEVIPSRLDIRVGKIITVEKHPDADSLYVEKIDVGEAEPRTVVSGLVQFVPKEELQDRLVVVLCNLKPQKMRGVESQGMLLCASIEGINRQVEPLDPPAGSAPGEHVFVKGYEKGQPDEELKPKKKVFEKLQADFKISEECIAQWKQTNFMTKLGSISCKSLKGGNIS

[4] = target: NADH dehydrogenase [ubiquinone] 1 alpha subcomplex subunit 13 (Homo sapiens, UniProt Q9P0J0)
Sequence of NADH dehydrogenase [ubiquinone] 1 alpha subcomplex subunit 13 (Q9P0J0 whole entry, one chain of several): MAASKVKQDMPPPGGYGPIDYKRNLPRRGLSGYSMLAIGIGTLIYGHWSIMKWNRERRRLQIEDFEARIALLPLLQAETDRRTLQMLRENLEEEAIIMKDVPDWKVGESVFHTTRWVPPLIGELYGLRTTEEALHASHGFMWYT

[5] = target: T4, Cytochrome c1, heme protein, mitochondrial (Homo sapiens, UniProt P08574)
T4 sequence (P08574 whole entry): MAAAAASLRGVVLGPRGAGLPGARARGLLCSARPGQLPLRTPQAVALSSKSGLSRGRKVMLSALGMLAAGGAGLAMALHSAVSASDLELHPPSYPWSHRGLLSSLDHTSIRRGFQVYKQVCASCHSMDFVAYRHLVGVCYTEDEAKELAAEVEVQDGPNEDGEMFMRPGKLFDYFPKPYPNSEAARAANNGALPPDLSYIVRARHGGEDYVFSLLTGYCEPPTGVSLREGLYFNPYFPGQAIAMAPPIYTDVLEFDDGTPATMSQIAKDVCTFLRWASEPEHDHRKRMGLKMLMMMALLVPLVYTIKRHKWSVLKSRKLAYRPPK
Also: in the data inactive means no Kd found up to 30 µM.

| Kd [1] | Kd [2] | Kd (Ephrin type-A receptor 1) | Kd [3] | Kd [4] | Kd [5] | SMILES |
| --- | --- | --- | --- | --- | --- | --- |
| > 30 µM (inactive) | > 30 µM (inactive) | > 30 µM (inactive) | > 30 µM (inactive) | > 30 µM (inactive) |  | C[C@@H](Oc1cc(C(=O)Nc2ccc(C(=O)N3CCN(C)CC3)cc2)nnc1N)c1c(Cl)ccc(F)c1Cl |
| > 30 µM (inactive) | > 30 µM (inactive) | > 30 µM (inactive) | > 30 µM (inactive) | > 30 µM (inactive) | > 30 µM (inactive) | CCNC(=O)C#Cc1ccc2c(c1)NC(=O)/C2=C(\Nc1ccc(CN(C)C)cc1)c1ccccc1 |
| > 30 µM (inactive) | > 30 µM (inactive) | > 30 µM (inactive) | > 30 µM (inactive) | > 30 µM (inactive) | > 30 µM (inactive) | C=CC(=O)N1CCC[C@H](n2c(=O)n(-c3ccc(Oc4ccccc4)cc3)c3c(N)ncnc32)C1 |
| > 30 µM (inactive) | > 30 µM (inactive) | > 30 µM (inactive) | > 30 µM (inactive) | > 30 µM (inactive) | > 30 µM (inactive) | Cc1nc2cc(-c3nn(C(C)C)c4ncnc(N)c34)ccc2o1 |
| > 30 µM (inactive) | > 30 µM (inactive) | > 30 µM (inactive) | > 30 µM (inactive) | > 30 µM (inactive) | > 30 µM (inactive) | COCc1c(-c2ccc(NC(=O)Nc3cc(C(F)(F)F)ccc3F)c(F)c2)c2c(N)ncnn2c1CN1CCOCC1 |
| > 30 µM (inactive) | > 30 µM (inactive) | > 30 µM (inactive) | > 30 µM (inactive) | > 30 µM (inactive) | > 30 µM (inactive) | Nc1ncnc2c1c(-c1cccc(OCc3ccccc3)c1)cn2[C@H]1C[C@@H](CN2CCC2)C1 [AEW-541] |
| > 30 µM (inactive) | > 30 µM (inactive) | > 30 µM (inactive) | > 30 µM (inactive) | > 30 µM (inactive) | > 30 µM (inactive) | C=CC(=O)Nc1cc2c(Nc3ccc(F)c(Cl)c3)ncnc2cc1C#CC(C)(C)N1CCN(C)CC1 [AV-412 FREE BASE] |
| > 30 µM (inactive) | > 30 µM (inactive) | > 30 µM (inactive) | > 30 µM (inactive) | > 30 µM (inactive) | > 30 µM (inactive) | Cn1cnc2c(F)c(Nc3ccc(Br)cc3F)c(C(=O)NOCCO)cc21 [BINIMETINIB] |
| > 30 µM (inactive) | > 30 µM (inactive) | > 30 µM (inactive) | > 30 µM (inactive) | > 30 µM (inactive) | > 30 µM (inactive) | CCn1c(C(=O)N(C2CC2)C2CC2)cc2c3c(ncn3C)c(Nc3cc(C)n(C)n3)nc21 [BMS-911543] |
| > 30 µM (inactive) | > 30 µM (inactive) | > 30 µM (inactive) | > 30 µM (inactive) | > 30 µM (inactive) | > 30 µM (inactive) | COc1cc2ncnc(Oc3cccc(NC(=O)Nc4cc(C(C)(C)C(F)(F)F)on4)c3)c2cc1OC [CEP-32496] |
| 0.701 µM (active) | > 30 µM (inactive) | > 30 µM (inactive) |  | > 30 µM (inactive) | > 30 µM (inactive) | CCS(=O)(=O)N1CCN(c2ccc(Nc3ncc(C(N)=O)c(NC4CC4)n3)cc2)CC1 [Cerdulatinib Hydrochloride] |
| > 30 µM (inactive) | > 30 µM (inactive) | > 30 µM (inactive) | > 30 µM (inactive) | > 30 µM (inactive) | > 30 µM (inactive) | Cc1nc2cc(-n3ncc(C(=O)c4cc5ccccc5[nH]4)c3N)ccc2[nH]1 [FGFR INHIBITOR DEBIO 1347] |
| > 30 µM (inactive) | > 30 µM (inactive) | > 30 µM (inactive) | > 30 µM (inactive) | > 30 µM (inactive) | > 30 µM (inactive) | CNC(=O)c1nn(C)c2c1C(C)(C)Cc1cnc(Nc3ccc(N4CCN(C)CC4)cc3)nc1-2 [MILCICLIB] |

Further lines, the compound ahead of its results:

| SMILES | Kd [1] | Kd [2] | Kd (Ephrin type-A receptor 1) | Kd [3] | Kd [4] | Kd [5] |
| --- | --- | --- | --- | --- | --- | --- |
| CC(=O)c1cnc2ccc(-c3cc(Cl)c(O)c(Cl)c3)nc2c1N[C@H]1CC[C@H](CN(C)C)CC1 | > 30 µM (inactive) | > 30 µM (inactive) | 0.091 µM (active) | > 30 µM (inactive) | > 30 µM (inactive) | > 30 µM (inactive) |
| COc1cc([C@@H]2c3cc4c(cc3[C@H](O)[C@H]3COC(=O)[C@@H]23)OCO4)cc(OC)c1OC [AXL-1717] | > 30 µM (inactive) | > 30 µM (inactive) | > 30 µM (inactive) | > 30 µM (inactive) | > 30 µM (inactive) | > 30 µM (inactive) |
| Cc1cc(Nc2ncc(Cl)c(Nc3ccccc3S(=O)(=O)C(C)C)n2)c(OC(C)C)cc1C1CCNCC1 [CERITINIB] | > 30 µM (inactive) | > 30 µM (inactive) | > 30 µM (inactive) | > 30 µM (inactive) | > 30 µM (inactive) | > 30 µM (inactive) |
| COCC(=O)NC/C=C/c1ccc2ncnc(Nc3ccc(Oc4ccc(C)nc4)c(C)c3)c2c1 [CP-724714] | > 30 µM (inactive) | > 30 µM (inactive) | > 30 µM (inactive) | > 30 µM (inactive) | > 30 µM (inactive) | > 30 µM (inactive) |
| C#Cc1cccc(Nc2ncnc3cc(OC)c(OCCCCCCC(=O)NO)cc23)c1 [CUDC-101] | > 30 µM (inactive) | > 30 µM (inactive) | > 30 µM (inactive) | > 30 µM (inactive) | > 30 µM (inactive) | > 30 µM (inactive) |
| O=C(Nc1nc2cccc(-c3ccc(CN4CCS(=O)(=O)CC4)cc3)n2n1)C1CC1 [FILGOTINIB] | > 30 µM (inactive) | > 30 µM (inactive) | > 30 µM (inactive) | > 30 µM (inactive) | > 30 µM (inactive) | > 30 µM (inactive) |
| CCn1cc(-c2ccnc3[nH]c(-c4cccc(CN(C)C)c4)cc23)c(-c2ccc(NC(=O)N(C)C)cc2)n1 [GSK-1070916] | > 30 µM (inactive) | > 30 µM (inactive) | > 30 µM (inactive) | > 30 µM (inactive) | > 30 µM (inactive) | > 30 µM (inactive) |
| COc1ccc(S(=O)(=O)N(C(C)=O)c2ccccc2/C=C/c2cc[n+]([O-])cc2)cc1 [HMN-214] | > 30 µM (inactive) | > 30 µM (inactive) | > 30 µM (inactive) | > 30 µM (inactive) | > 30 µM (inactive) | > 30 µM (inactive) |
| CNC(=O)c1cccc2cc(Oc3ccnc4cc(OCC5(N)CC5)c(OC)cc34)ccc12 [LUCITANIB] | > 30 µM (inactive) | > 30 µM (inactive) | > 30 µM (inactive) | > 30 µM (inactive) | > 30 µM (inactive) | > 30 µM (inactive) |
